# Test results reported in ChEMBL document CHEMBL1128491, “Flexible 1-[(2-aminoethoxy)alkyl]-3-ar(o)yl(thio)ureas as novel acetylcholinesterase inhibitors. Synthesis and biochemical evaluation” (J Med Chem, 1995).
# Target: T1, Acetylcholinesterase (Rattus norvegicus, UniProt P37136)
# T1 sequence (P37136 whole entry): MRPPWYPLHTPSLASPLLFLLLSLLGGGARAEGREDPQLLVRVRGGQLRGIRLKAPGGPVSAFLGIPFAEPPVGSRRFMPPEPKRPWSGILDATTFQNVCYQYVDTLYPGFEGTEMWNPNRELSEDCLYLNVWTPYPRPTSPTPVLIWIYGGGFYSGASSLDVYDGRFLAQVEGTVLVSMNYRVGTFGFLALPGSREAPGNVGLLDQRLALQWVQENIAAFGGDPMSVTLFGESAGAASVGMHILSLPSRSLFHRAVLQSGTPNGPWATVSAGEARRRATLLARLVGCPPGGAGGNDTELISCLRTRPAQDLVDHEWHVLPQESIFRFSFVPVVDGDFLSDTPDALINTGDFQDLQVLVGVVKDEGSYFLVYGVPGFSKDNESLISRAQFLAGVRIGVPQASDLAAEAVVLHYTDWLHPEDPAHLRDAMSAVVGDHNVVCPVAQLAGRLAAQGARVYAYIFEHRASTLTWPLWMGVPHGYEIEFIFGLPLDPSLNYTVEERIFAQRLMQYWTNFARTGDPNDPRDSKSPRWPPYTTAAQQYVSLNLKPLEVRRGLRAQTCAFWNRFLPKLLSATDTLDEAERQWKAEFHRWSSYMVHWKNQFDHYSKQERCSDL
# Description: In vitro inhibitory effect on rat Acetylcholinesterase
row,Structure (SMILES),IC50
1,CN(CCOCCNC(=O)Nc1ccc([N+](=O)[O-])cc1)Cc1ccccc1,2300 nM
2,CN(CCOCCNC(=S)NC(=O)c1ccccc1)C1CCCCC1,13 nM
3,CN(CCOCCNC(=S)NC1CCCCC1)Cc1ccccc1,1400 nM
4,CN(CCOCC/N=C(\S)Nc1cccnc1)Cc1ccccc1,4000 nM
5,Cc1ccc(C(=O)NC(=S)NCCOCCN(C)Cc2ccccc2)cc1,77 nM
6,CN(CCOCCNC(=S)NC(=O)c1ccccc1)Cc1ccccc1,120 nM
7,CN(CCOCCNC(=S)NC(=O)c1ccc(-c2ccccc2)cc1)Cc1ccccc1,230 nM
8,CN(CCOCCNC(=S)Nc1cccc2ccccc12)Cc1ccccc1,> 10000 nM
9,CN(CCOCCNC(=S)Nc1ccc(OC(F)(F)F)cc1)Cc1ccccc1,1000 nM
10,COc1ccc(C(=O)NC(=S)NCCOCCN(C)Cc2ccccc2)cc1,26 nM
11,CN(CCOCCNC(=S)NC(=O)c1ccc2c(c1)-c1ccccc1C2=O)Cc1ccccc1,30 nM
12,CN(CCOCCNC(S)=NC(=O)c1cccc([N+](=O)[O-])c1)Cc1ccccc1,15 nM
13,CN(CCOCCNC(=S)NC(=O)C1=CC2C(=O)c3ccccc3C(=O)C2C=C1)Cc1ccccc1 (configuration not stated),6 nM
14,CCN(CCOCCNC(=O)NCc1ccccc1)CC1CCCCC1,> 10000 nM
15,COc1ccc(NC(=S)NCCOCCN(C)Cc2cccc([N+](=O)[O-])c2)cc1OC,1500 nM
16,CN(CCOCCCNC(=S)NC(=O)c1ccccc1)Cc1ccccc1,1100 nM
17,CN(CCOCCNC(=S)NC(=O)c1ccc(Cl)c(Cl)c1)Cc1ccccc1,55 nM
